Active and inactive are the calls of the source. No cut-off for these calls is given here.
Legend:
[1] = Antitumor activity against mouse HepS cells allografted in Kunming mouse assessed as tumor growth inhibition at 15 ug/kg, ip qd administered 24 hrs post challenge for 10 days; format: functional; settings: read-out: GI
CCRF S-180 [2] = assay: Antitumor activity against mouse S180 cells allografted in ip dosed Kunming mouse assessed as tumor growth inhibition administered qd 24 hrs post challenge for 10 days; format: functional, organism-based
CCRF S-180 [3] = assay: Antitumor activity against mouse S180 cells allografted in Kunming mouse assessed as tumor growth inhibition at 15 ug/kg, ip qd administered 24 hrs post challenge for 10 days; format: functional; settings: CCRF S-180, ip, read-out: GI
HepS [4] = assay: Antitumor activity against mouse HepS cells allografted in ip dosed Kunming mouse assessed as tumor growth inhibition administered qd 24 hrs post challenge for 10 days; format: functional, organism-based
CCRF S-180 [5] = assay: Antitumor activity against mouse S180 cells allografted in Kunming mouse assessed as tumor growth inhibition at 60 ug/kg, ip qd administered 24 hrs post challenge for 10 days; format: functional; settings: CCRF S-180, ip, read-out: GI
[6] = Antitumor activity against mouse HepS cells allografted in Kunming mouse assessed as tumor growth inhibition at 60 ug/kg, ip qd administered 24 hrs post challenge for 10 days; format: functional; settings: read-out: GI
[7] = Antitumor activity against mouse HepS cells allografted in Kunming mouse assessed as tumor growth inhibition at 40 ug/kg, ip qd administered 24 hrs post challenge for 10 days; format: functional; settings: read-out: GI
CCRF S-180 [8] = assay: Antitumor activity against mouse S180 cells allografted in Kunming mouse assessed as tumor growth inhibition at 40 ug/kg, ip qd administered 24 hrs post challenge for 10 days; format: functional; settings: CCRF S-180, ip, read-out: GI
CCRF S-180 [9] = assay: Antitumor activity against mouse S180 cells allografted in Kunming mouse assessed as improved spleen index at 40 ug/kg, ip qd administered 24 hrs post challenge for 10 days; format: functional, organism-based
HepS [10] = assay: Antitumor activity against mouse HepS cells allografted in Kunming mouse assessed as improved spleen index at 40 ug/kg, ip qd administered 24 hrs post challenge for 10 days; format: functional, organism-based
Mus musculus [11] = assay: Toxicity in Kunming mouse allografted with mouse S180 cells assessed as adverse effects at 60 ug/kg, ip qd administered 24 hrs post challenge for 10 days; format: organism-based, CCRF S-180; settings: in vivo, 0.06 mg/kg
Mus musculus [12] = assay: Toxicity in Kunming mouse allografted with mouse HepS cells assessed as adverse effects at 60 ug/kg, ip qd administered 24 hrs post challenge for 10 days; format: organism-based; settings: in vivo, 0.06 mg/kg

SMILES	inhibition in vivo at 0.015 mg/kg [1] [%]	growth inhibition (GI) (CCRF S-180 [2])	inhibition in vivo at 0.015 mg/kg (CCRF S-180 [3]) [%]	growth inhibition (GI) (HepS [4])	inhibition in vivo at 0.06 mg/kg (CCRF S-180 [5]) [%]	inhibition in vivo at 0.06 mg/kg [6] [%]	inhibition in vivo at 0.04 mg/kg [7] [%]	inhibition in vivo at 0.04 mg/kg (CCRF S-180 [8]) [%]	Activity (CCRF S-180 [9])	Activity (HepS [10])	Activity (Mus musculus [11])	Activity (Mus musculus [12])
CCCCCCCCCCCC[C@@H](O)[C@H]1CC[C@H]([C@H](O)CCCCCC(O)CCCCCCC2=C[C@H](C)OC2=O)O1 (some centres undefined)	61.5	Dose-dependent effect	43.9	Dose-dependent effect	48.3	67.3	–	–	–	–	–	–
CCCCCCCCCC[C@@H](O)[C@@H]1CC[C@@H]([C@H](O)CC[C@@H](O)[C@@H]2CC[C@@H](CCCCCCCCCC3=C[C@H](C)OC3=O)O2)O1 [SQUAMOSTATIN E]	34.2	Dose-dependent effect	27.2	Dose-dependent effect	51.1	51.3	–	–	–	–	–	–
CC(=O)O[C@H]1C(=O)[C@@]2(C)[C@H]([C@H](OC(=O)c3ccccc3)[C@]3(O)C[C@H](OC(=O)[C@H](O)[C@@H](NC(=O)c4ccccc4)c4ccccc4)C(C)=C1C3(C)C)[C@]1(OC(C)=O)CO[C@@H]1C[C@@H]2O [PACLITAXEL]	–	–	–	–	–	–	62.2	48.9	Active	Active	–	–
CCCCCC[C@H](O)CCC[C@H](O)[C@H]1CC[C@H]([C@H](O)CC[C@H](O)[C@@H]2CC[C@@H](CCCCCCCCCC3=C[C@H](C)OC3=O)O2)O1 [SQUAMOSTATIN A]	15	Dose-dependent effect	52.7	Dose-dependent effect	54.2	31.2	–	–	–	–	–	–
CCCCCCCCCC[C@H](O)[C@H]1CC[C@H]([C@H]2CC[C@H]([C@H](O)CCCCCCCCCCCCC3=C[C@H](C)OC3=O)O2)O1 [BULLANIN]	32.5	Dose-dependent effect	42.3	Dose-dependent effect	63.9	70.9	–	–	–	–	–	–
CCCCCCCCCC[C@@H](O)[C@@H]1CC[C@@H]([C@@H]2CC[C@@H]([C@H](O)CCCCCCCCCC(O)CC3=CC(C)OC3=O)O2)O1 (some centres undefined) [BULLATACIN]	63.4	Dose-dependent effect	65.8	Dose-dependent effect	–	–	–	–	–	–	–	–
CCCCCCCCCC[C@H](O)[C@H]1CC[C@H]([C@H]2CC[C@H]([C@H](O)CCCCCCCCCC[C@@H](O)CC3=C[C@H](C)OC3=O)O2)O1 [BULLATACIN]	–	–	–	–	–	–	–	–	–	–	Toxic	Toxic

Reference: ChEMBL document CHEMBL2016439, “Antitumor activity of annonaceous acetogenins in HepS and S180 xenografts bearing mice” (Bioorg Med Chem Lett, 2012)
